Experimental data published in patent US20240366813A1, “PEPTIDE-UREA DERIVATIVE, PHARMACEUTICAL COMPOSITION CONTAINING SAME AND APPLICATION THEREOF” (Bivision Pharmaceuticals, Inc., priority 0001, published 2024).
Where “and” joins values, the source holds several entries; their conditions need not be identical. Equal values may be shown once.

Tests used:
[1] = biological target: PSMA protein (Homo sapiens (Human), UniProt Q04609); assay: In vitro binding test of compound and PSMA protein (Biacore); conditions: Biacore 8K, 15° C., 1:1 binding model, KD in M; for Kd: read-out: pkD (pKD=−Log KD, binding affinity to PSMA protein) (converted)
Experimental: A Biacore 8K (Cytiva) instrument was used to determine the binding affinity of disclosed compounds to the PSMA protein (Sinobiological). The PSMA protein was captured on SA chips. Before immobilizing the disclosed compounds (flow path 1 and 2, flow rate 10 μL/min), the PSMA protein was immobilized on flow path 2 by using flow buffer (10 μg/ml, flow rate 5 μL/min, injection time 600 s), and 1M NaCl was injected three times consecutively into 50 mM NaOH to condition the sensor surface. After each disclosed compounds injection, isopropanol in 1M NaCl and 50 mM NaOH was used for additional washing (flow path 1, 2, flow rate 10 μL/min, injection time 60 s).
All compounds were dissolved in 100% DMSO and diluted to 10 mM, and then diluted in test buffer (PBS, pH 7.4, 1 mM TCEP ([…]), 0.05% P20, 2% dimethyl sulfoxide) at an appropriate highest concentration. Analytes were run using the following conditions: 15° C. analysis temperature, analysis steps=all set to LMW kinetics; cycle type=single cycle (90 s contact time, 1800 s separation time, 30 ul/min flow rate, channels 1, 2); channel detection=2-1). Data were evaluated using Biacore Insight evaluation software, and data were fit to a 1:1 binding model.
Biacore results are shown in Table 12: pKD=−Log KD, where KD is the binding affinity of the compounds to PSMA protein measured by Biacore. KD is expressed by KD (M)=Kd (1/s)/Ka (1/Ms).

[2] = test system: PSMA-positive cells LNCap; assay: Uptake of labeled compounds by PSMA-positive cells LNCap; assay type: cell-based; conditions: 37° C., 0.5 h
Experimental: LNCap cells (Shangcheng Beina Chuanglian Biotechnology Co., Ltd., Industrial Park, Chengguan Town, Shangcheng County, Xinyang City, Henan Province) were revived and passaged for expansion. After the cells were expanded to a sufficient amount, cells were seeded in a 24-well plate at a density of 1×10^4 cells/well. Uptake tests were performed when cells grew to 80%-90% confluence.
The above labeled compounds ^177Lu-E1, ^177Lu-E2, ^177Lu-E3, ^177Lu-E5, ^177Lu-E9, ^177Lu-E14 and ^177Lu-PSMA-617 were diluted with serum-free medium into 10000, 1000, 100, 10, 1, 0.1 and 0 nM. 1 mL of the diluted solution was added to a 24-well plate, and incubated at 37° C. for 0.5 h. The supernatant was discarded and the cells were washed 3 times with PBS. 250 μL of 1M NaOH solution was added to each well. The cells were pipetted until they were completely dissolved, and transferred to a scintillation vial. 250 μL of NaOH solution was added to each well again to wash the bottom of the well and transferred to a scintillation vial. 2 mL of scintillation fluid was added to each scintillation vial and shaken well. A liquid scintillation counter was used to detect radioactive counts in each vial.

[3] = In vivo metabolism test of 177Lu-labeled complex in SD rats (plasma radioactive counts); conditions: for plasma radioactive counts: individual rat, 100 μL plasma; for plasma radioactive counts, MEAN: mean of rats
Experimental: Eighteen SD rats (Hangzhou Ziyuan Experimental Animal Technology Co., Ltd.), male, weighing 180-200 g, were randomly divided into 6 groups, 3 rats in each group. […] of the labeled precursor compound was injected into the tail vein of each mouse. 250 μL of orbital blood was collected into anticoagulant tubes at 5 min, 0.5 h, 1 h, 2 h, 4 h, 8 h and 24 h after administration. Blood was centrifuged at 3000 rpm for 10 min, and 100 μL of plasma was taken into scintillation vials. 2 mL of scintillation fluid was added to each scintillation vial and shaken well. A liquid scintillation counter was used to detect radioactive counts in each vial.

[4] = test system: LNCaP PSMA-positive tumors; assay: SPECT imaging in mice carrying LNCaP PSMA-positive tumors; assay type: in vivo; conditions: 100 μCi tail vein
Experimental: 100 μCi of ^177Lu-labeled ^177Lu-E3 and ^177Lu-PSMA-617 were injected into mice carrying LNCaP PSMA-positive tumors (Jiangsu Huajing Molecular Imaging and Drug Research Institute Co., Ltd.) through the tail vein respectively. Mice were anesthetized with 2% isoflurane/98% oxygen for SPECT image contrast study.

[5] = test system: 22rv1 xenograft tumor; assay: Pharmacodynamic study in 22rv1 mouse xenograft tumor model (effect example 11); assay type: in vivo, mice; conditions: for TGITV (relative tumor inhibition rate): Day 19; for Tumor volume, Administration in groups Day 19: mean ± standard error
[6] = 5 min after tail vein injection
[7] = 0.5 h after tail vein injection
[8] = 300 μCi of ^177Lu-labeled test sample
[9] = 600 μCi of ^177Lu-labeled test sample

Sequence of PSMA protein (Q04609 whole entry): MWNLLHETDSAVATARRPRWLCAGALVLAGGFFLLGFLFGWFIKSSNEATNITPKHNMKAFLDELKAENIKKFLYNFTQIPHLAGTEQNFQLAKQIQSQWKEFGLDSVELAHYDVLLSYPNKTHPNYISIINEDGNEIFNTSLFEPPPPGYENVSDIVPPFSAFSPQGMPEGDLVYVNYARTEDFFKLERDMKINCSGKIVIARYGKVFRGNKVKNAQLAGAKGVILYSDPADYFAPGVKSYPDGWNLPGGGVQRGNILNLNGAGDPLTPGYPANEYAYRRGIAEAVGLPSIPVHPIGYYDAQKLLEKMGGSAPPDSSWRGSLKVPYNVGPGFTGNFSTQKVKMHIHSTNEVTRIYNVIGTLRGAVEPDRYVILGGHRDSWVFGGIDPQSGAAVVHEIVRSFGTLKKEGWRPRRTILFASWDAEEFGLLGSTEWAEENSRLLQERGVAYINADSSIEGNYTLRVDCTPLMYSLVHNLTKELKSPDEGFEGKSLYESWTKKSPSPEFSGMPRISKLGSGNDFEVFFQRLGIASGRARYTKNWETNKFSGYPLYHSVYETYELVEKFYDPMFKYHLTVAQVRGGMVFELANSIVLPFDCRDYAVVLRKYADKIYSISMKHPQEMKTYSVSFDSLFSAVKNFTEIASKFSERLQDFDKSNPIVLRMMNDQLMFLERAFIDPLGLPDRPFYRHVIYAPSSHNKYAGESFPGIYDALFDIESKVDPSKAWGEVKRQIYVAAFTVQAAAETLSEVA

## O=C(O)CC[C@H](NC(=O)N[C@@H](CCCCNC(=O)[C@H](Cc1ccc2ccccc2c1)NC(=O)C1C2CN(C(=O)CN3CCN(CC(=O)O)CCN(CC(=O)O)CCN(CC(=O)O)CC3)CC21)C(=O)O)C(=O)O (stereo partly drawn) [Compound E8]
[1]
  pkD (pKD=−Log KD, binding affinity to PSMA protein): 9.49

## O=C([O-])CN1CCN(CC(=O)[O-])CCN(CC(=O)NCC2CCC(C(=O)N[C@@H](Cc3ccc4ccccc4c3)C(=O)NCCCC[C@H](NC(=O)N[C@@H](CCC(=O)O)C(=O)O)C(=O)O)CC2)CCN(CC(=O)[O-])CC1.[177Lu+3] (stereo partly drawn) [^177Lu-PSMA-617, reference compound]
[2]; 0.1 nM
  uptake by LNCap cells: 49 cpm
[2]; 1 nM
  uptake by LNCap cells: 67 cpm
[2]; 10 nM
  uptake by LNCap cells: 225 cpm
[2]; 100 nM
  uptake by LNCap cells: 389 cpm
[2]; 1000 nM
  uptake by LNCap cells: 599 cpm
[2]; 10000 nM
  uptake by LNCap cells: 1625 cpm
[3]; [6]
  plasma radioactive counts: 24449 cpm and 23276 cpm and 22010 cpm
  plasma radioactive counts, MEAN: 23245 cpm
[3]; [7]
  plasma radioactive counts: 9783 cpm and 13738 cpm and 14589 cpm
  plasma radioactive counts, MEAN: 12703 cpm
[3]; 1 h after tail vein injection
  plasma radioactive counts: 3865 cpm and 6988 cpm and 7736 cpm
  plasma radioactive counts, MEAN: 6196 cpm
[3]; 2 h after tail vein injection
  plasma radioactive counts: 679 cpm and 1346 cpm and 1544 cpm
  plasma radioactive counts, MEAN: 1190 cpm
[3]; 4 h after tail vein injection
  plasma radioactive counts: 207 cpm and 219 cpm and 225 cpm
  plasma radioactive counts, MEAN: 217 cpm
[3]; 8 h after tail vein injection
  plasma radioactive counts: 188 cpm and 187 cpm and 170 cpm
  plasma radioactive counts, MEAN: 182 cpm
[3]; 24 h after tail vein injection
  plasma radioactive counts: 173 cpm and 176 cpm and 178 cpm
  plasma radioactive counts, MEAN: 176 cpm
[4]; 1 h
  Heart, Averaged: 1.59 % ID/cc
  Kidney, Averaged: 58.17 % ID/cc
  Liver, Averaged: 1.61 % ID/cc
  Lung, Averaged: 3.30 % ID/cc
  Tumor, Averaged: 19.42 % ID/cc
[4]; 4 h
  Heart, Averaged: 1.47 % ID/cc
  Kidney, Averaged: 8.37 % ID/cc
  Liver, Averaged: 1.27 % ID/cc
  Lung, Averaged: 1.54 % ID/cc
  Tumor, Averaged: 10.68 % ID/cc
[4]; 8 h
  Heart, Averaged: 0.53 % ID/cc
  Kidney, Averaged: 4.35 % ID/cc
  Liver, Averaged: 1.04 % ID/cc
  Lung, Averaged: 0.86 % ID/cc
  Tumor, Averaged: 9.4 % ID/cc
[4]; 1 d
  Heart, Averaged: 1.45 % ID/cc
  Kidney, Averaged: 1.16 % ID/cc
  Liver, Averaged: 1.43 % ID/cc
  Lung, Averaged: 0.85 % ID/cc
  Tumor, Averaged: 2.19 % ID/cc
[4]; 3 d
  Heart, Averaged: 0.46 % ID/cc
  Kidney, Averaged: 1.55 % ID/cc
  Liver, Averaged: 0.96 % ID/cc
  Lung, Averaged: 3.74 % ID/cc
  Tumor, Averaged: 4.76 % ID/cc
[5]; over the two dose groups
  tumor growth inhibition rate: 15-21%

## O=C(O)CC[C@H](NC(=O)N[C@@H](CCCCNC(=O)[C@H](Cc1ccc2ccccc2c1)NC(=O)c1cnc2cc(NC(=O)CN3CCN(CC(=O)O)CCN(CC(=O)O)CCN(CC(=O)O)CC3)ccc2c1)C(=O)O)C(=O)O [Compound E25]
[1]
  pkD (pKD=−Log KD, binding affinity to PSMA protein): 10.15

## O=C(O)CC[C@H](NC(=O)NC(CCCCNC(=O)[C@H](Cc1ccc2ccccc2c1)NC(=O)C1CCC2(CC1)CN(C(=O)CN1CCN(CC(=O)O)CCN(CC(=O)O)CCN(CC(=O)O)CC1)C2)C(=O)O)C(=O)O (stereo partly drawn) [Compound E2]
[1]
  Kd: 0.229 nM

## O=C(O)CC[C@H](NC(=O)N[C@@H](CCCCNC(=O)[C@H](Cc1ccc2ccccc2c1)NC(=O)c1ccc2cc(NC(=O)CN3CCN(CC(=O)O)CCN(CC(=O)O)CCN(CC(=O)O)CC3)ccc2c1)C(=O)O)C(=O)O [Compound E21]
[1]
  pkD (pKD=−Log KD, binding affinity to PSMA protein): 9.82

## O=C(O)CC[C@H](NC(=O)N[C@@H](CCCCNC(=O)[C@H](Cc1ccc2ccccc2c1)NC(=O)[C@H]1CC[C@H](CNC(=O)CN2CCN(CC(=O)O)CCN(CC(=O)O)CCN(CC(=O)O)CC2)CC1)C(=O)O)C(=O)O [PSMA-617, reference compound]
[1]
  Kd: 0.00204 nM
[5]; [8]
  TGITV (relative tumor inhibition rate): 15.49%
  Tumor volume, Administration in groups Day 19: 1,480.09 ± 446.83 mm^3
[5]; [9]
  TGITV (relative tumor inhibition rate): 21.18%
  Tumor volume, Administration in groups Day 19: 1,389.81 ± 598.96 mm^3

## O=C(O)CC[C@H](NC(=O)N[C@@H](CCCCNC(=O)[C@H](Cc1ccc2ccccc2c1)NC(=O)c1ccc2c(c1)CN(C(=O)CN1CCN(CC(=O)O)CCN(CC(=O)O)CCN(CC(=O)O)CC1)CC2)C(=O)O)C(=O)O [Compound E4]
[1]
  Kd: 0.269 nM

## O=C(O)CC[C@H](NC(=O)N[C@@H](CCCCNC(=O)[C@H](Cc1ccc2ccccc2c1)NC(=O)C1CC2(C1)CN(C(=O)CN1CCN(CC(=O)O)CCN(CC(=O)O)CCN(CC(=O)O)CC1)C2)C(=O)O)C(=O)O [Compound E22]
[1]
  pkD (pKD=−Log KD, binding affinity to PSMA protein): 10.00

## O=C(O)CC[C@H](NC(=O)NC(CCCCNC(=O)[C@H](Cc1ccc2ccccc2c1)NC(=O)C1CCC2(CC1)CCN(C(=O)CN1CCN(CC(=O)O)CCN(CC(=O)O)CCN(CC(=O)O)CC1)CC2)C(=O)O)C(=O)O (stereo partly drawn) [Compound E9]
[1]
  Kd: 0.282 nM

## O=C([O-])CN1CCN(CC(=O)[O-])CCN(CC(=O)Nc2nc3cc(C(=O)NC(Cc4ccc5ccccc5c4)C(=O)NCCCCC(NC(=O)NC(CCC(=O)O)C(=O)O)C(=O)O)ccc3s2)CCN(CC(=O)[O-])CC1.[177Lu+3] (stereo not drawn) [^177Lu-E1]
[2]; 0.1 nM
  uptake by LNCap cells: 39 cpm
[2]; 1 nM
  uptake by LNCap cells: 169 cpm
[2]; 10 nM
  uptake by LNCap cells: 77 cpm
[2]; 100 nM
  uptake by LNCap cells: 121 cpm
[2]; 1000 nM
  uptake by LNCap cells: 331 cpm
[2]; 10000 nM
  uptake by LNCap cells: 1595 cpm
[3]; [6]
  plasma radioactive counts: 28305 cpm and 17143 cpm
  plasma radioactive counts, MEAN: 22724 cpm
[3]; [7]
  plasma radioactive counts: 9829 cpm and 8252 cpm
  plasma radioactive counts, MEAN: 9041 cpm
[3]; 1 h after tail vein injection
  plasma radioactive counts: 3505 cpm and 3389 cpm
  plasma radioactive counts, MEAN: 3447 cpm
[3]; 2 h after tail vein injection
  plasma radioactive counts: 615 cpm and 1288 cpm
  plasma radioactive counts, MEAN: 952 cpm
[3]; 4 h after tail vein injection
  plasma radioactive counts: 163 cpm and 315 cpm
  plasma radioactive counts, MEAN: 239 cpm
[3]; 8 h after tail vein injection
  plasma radioactive counts: 174 cpm and 179 cpm
  plasma radioactive counts, MEAN: 177 cpm
[3]; 24 h after tail vein injection
  plasma radioactive counts: 151 cpm and 169 cpm
  plasma radioactive counts, MEAN: 160 cpm
